Results reported in ChEMBL document CHEMBL1201862, “PubChem BioAssay data set” (2004).
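The compound was tested at five concentrations on cells cultured in 96-well plates, with a 48-hour exposure period. GI50 = concentration required for 50% inhibition of growth.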 Calls of active or inactive are those of the source. Cut-off read from the data, not from the text of the source: active = GI50 up to about 1.1 µM and inactive = higher.

Tests used:
Assay in all cases: NCI anticancer screen, dose series, 48 h
CCRF-CEM = system: CCRF-CEM
NCI-H226 = system: NCI-H226
HOP-62 = system: HOP-62
A549 = system: A549
UO-31 = system: UO-31
M14 = system: M14
LOX IMVI = system: LOX IMVI
OVCAR-3 = system: OVCAR-3
SK-MEL-28 = system: SK-MEL-28
UACC-257 = system: UACC-257
SN12C = system: SN12C
ACHN = system: ACHN
SF-539 = system: SF-539
RXF 393 = system: RXF 393
SF-295 = system: SF-295
OVCAR-5 = system: OVCAR-5
MDA-MB-231 = system: MDA-MB-231
MCF7 = system: MCF7
DU-145 = system: DU-145

Measured: GI50

CC(=O)c1cccc(NC(=O)/C(=N\NC(C)(C)C)c2c(O)c3ccccc3oc2=O)c1
inactive: CCRF-CEM > 100 µM | NCI-H226 > 100 µM | HOP-62 > 100 µM | A549 > 100 µM | UO-31 > 100 µM | M14 > 100 µM | LOX IMVI > 100 µM | OVCAR-3 > 100 µM | SK-MEL-28 > 100 µM | UACC-257 > 100 µM | SN12C > 100 µM | ACHN > 100 µM | SF-539 > 100 µM | RXF 393 > 100 µM | SF-295 > 100 µM

N#Cc1nc(C2OC(COC(=O)c3ccccc3)C(OC(=O)c3ccccc3)C2OC(=O)c2ccccc2)oc1N (stereo not given)
inactive: CCRF-CEM 3.18 µM | NCI-H226 14.2 µM | HOP-62 > 100 µM | A549 26.4 µM | UO-31 12 µM | M14 89.7 µM | LOX IMVI 67.1 µM | OVCAR-3 34.1 µM | SK-MEL-28 31 µM | UACC-257 20.7 µM | SN12C 48.2 µM | ACHN 33.7 µM | SF-539 58.6 µM | OVCAR-5 87.7 µM | RXF 393 14.7 µM | SF-295 39.2 µM

O=C(/C=C/c1ccccc1)NC1C=Nc2ccc([N+](=O)[O-])cc2NC1=O (stereo not given)
inactive: CCRF-CEM 17.4 µM | NCI-H226 > 100 µM | HOP-62 84.3 µM | A549 > 100 µM | UO-31 48.9 µM | M14 52.8 µM | LOX IMVI 22.7 µM | OVCAR-3 80.5 µM | SK-MEL-28 > 100 µM | UACC-257 > 100 µM | SN12C > 100 µM | ACHN 26.2 µM | SF-539 > 100 µM | OVCAR-5 71.9 µM | RXF 393 > 100 µM | SF-295 30.3 µM

S=C(/N=c1/sc(Nc2ccccc2)nc2sc3c(c12)CCCC3)Nc1ccccc1
inactive: MDA-MB-231 > 62.5 µM | CCRF-CEM > 62.5 µM | NCI-H226 > 62.5 µM | HOP-62 > 62.5 µM | UO-31 > 62.5 µM | MCF7 > 62.5 µM | LOX IMVI > 62.5 µM | OVCAR-3 > 62.5 µM | SK-MEL-28 > 62.5 µM | UACC-257 > 62.5 µM | SN12C > 62.5 µM | ACHN > 62.5 µM | OVCAR-5 > 62.5 µM | DU-145 > 62.5 µM | RXF 393 > 62.5 µM

Cc1c(Cl)cccc1NC(=O)/C(Cl)=C(\Cl)C(=O)O
inactive: CCRF-CEM 4.14 µM | NCI-H226 20.7 µM | HOP-62 31.8 µM | A549 19.5 µM | UO-31 18.7 µM | M14 16.1 µM | LOX IMVI 18.7 µM | OVCAR-3 19 µM | SK-MEL-28 20.5 µM | UACC-257 19.3 µM | SN12C 17.4 µM | ACHN 17.5 µM | SF-539 17 µM | OVCAR-5 16.9 µM | RXF 393 19.9 µM | SF-295 19.4 µM

CCN(CC)c1cccc2c1C1(O)CCC3(CC21)OCCCCO3 (stereo not given)
inactive: CCRF-CEM 90.4 µM | NCI-H226 63.4 µM | HOP-62 > 100 µM | A549 49 µM | UO-31 > 100 µM | M14 > 100 µM | LOX IMVI 50.8 µM | OVCAR-3 84.9 µM | SK-MEL-28 > 100 µM | UACC-257 > 100 µM | SN12C 74.1 µM | ACHN 91.8 µM | SF-539 35.3 µM | OVCAR-5 > 100 µM | RXF 393 15.3 µM | SF-295 28.8 µM

O=C(CSc1nnc(Cc2ccccc2)o1)Nc1ccc(Cl)cc1Cl
inactive: CCRF-CEM > 100 µM | NCI-H226 > 100 µM | HOP-62 > 100 µM | A549 > 100 µM | UO-31 > 100 µM | M14 > 100 µM | LOX IMVI > 100 µM | OVCAR-3 > 100 µM | SK-MEL-28 > 100 µM | UACC-257 > 100 µM | SN12C > 100 µM | ACHN > 100 µM | SF-539 > 100 µM | OVCAR-5 > 100 µM | RXF 393 > 100 µM | SF-295 > 100 µM

NC(=S)C1=C(N)Oc2c(c(=O)oc3ccccc23)C1c1ccc(Br)cc1 (stereo not given)
inactive: MDA-MB-231 > 100 µM | CCRF-CEM 36.3 µM | HOP-62 > 100 µM | A549 > 100 µM | UO-31 > 100 µM | MCF7 > 100 µM | M14 > 100 µM | LOX IMVI > 100 µM | OVCAR-3 > 100 µM | SK-MEL-28 > 100 µM | UACC-257 > 100 µM | SN12C > 100 µM | ACHN > 100 µM | SF-539 > 100 µM | OVCAR-5 > 100 µM | DU-145 > 100 µM | SF-295 > 100 µM

Cc1cccc(NC(=O)CSc2nnc(Cc3ccccc3)o2)c1
inactive: CCRF-CEM > 100 µM | NCI-H226 > 100 µM | HOP-62 > 100 µM | A549 > 100 µM | UO-31 > 100 µM | M14 > 100 µM | LOX IMVI > 100 µM | OVCAR-3 > 100 µM | SK-MEL-28 > 100 µM | UACC-257 > 100 µM | SN12C > 100 µM | ACHN > 100 µM | SF-539 > 100 µM | OVCAR-5 > 100 µM | RXF 393 > 100 µM | SF-295 > 100 µM

C/C(CC(=O)NC1=CC=C(NC(=O)C/C(C)=N\Nc2ccccc2)CC1)=N/Nc1ccccc1
inactive: CCRF-CEM > 100 µM | NCI-H226 > 100 µM | HOP-62 > 100 µM | A549 > 100 µM | UO-31 > 100 µM | M14 > 100 µM | LOX IMVI 70.8 µM | OVCAR-3 > 100 µM | SK-MEL-28 > 100 µM | UACC-257 > 100 µM | SN12C > 100 µM | ACHN > 100 µM | SF-539 > 100 µM | OVCAR-5 > 100 µM | RXF 393 > 100 µM | SF-295 > 100 µM

CCOC(=O)N1N=NC2C3OC(C[C@@]3(C#N)OC(C)=O)[C@H]21 (stereo not given in full)
inactive: CCRF-CEM > 100 µM | NCI-H226 > 100 µM | HOP-62 > 100 µM | A549 > 100 µM | UO-31 > 100 µM | M14 > 100 µM | LOX IMVI > 100 µM | OVCAR-3 > 100 µM | SK-MEL-28 > 100 µM | UACC-257 > 100 µM | SN12C > 100 µM | ACHN > 100 µM | SF-539 > 100 µM | OVCAR-5 > 100 µM | RXF 393 > 100 µM | SF-295 > 100 µM

O=C(Cc1ccccc1)N/N=C(/c1nc2ccc([N+](=O)[O-])cc2nc1O)C(O)c1ccc(C(O)/C(=N/NC(=O)Cc2ccccc2)c2nc3ccc([N+](=O)[O-])cc3nc2O)cc1 (stereo not given)
inactive: CCRF-CEM 7.26 µM | NCI-H226 > 100 µM | HOP-62 44.6 µM | A549 50.9 µM | M14 40.6 µM | LOX IMVI 12.1 µM | OVCAR-3 20.7 µM | SK-MEL-28 > 100 µM | UACC-257 62.4 µM | SN12C > 100 µM | ACHN 35.2 µM | SF-539 56.8 µM | OVCAR-5 40.4 µM | RXF 393 > 100 µM | SF-295 44.9 µM

O=C(CCCCCCCCC(=O)OCC1OC(n2cnc3c(=O)[nH]cnc32)C(O)C1O)OCC1OC(n2cnc3c(=O)[nH]cnc32)C(O)C1O (stereo not given)
inactive: CCRF-CEM > 100 µM | NCI-H226 > 100 µM | HOP-62 > 100 µM | A549 > 100 µM | UO-31 > 100 µM | M14 > 100 µM | LOX IMVI > 100 µM | OVCAR-3 > 100 µM | SK-MEL-28 > 100 µM | UACC-257 > 100 µM | SN12C > 100 µM | ACHN > 100 µM | SF-539 > 100 µM | OVCAR-5 > 100 µM | RXF 393 > 100 µM | SF-295 > 100 µM

COC(=O)C(Cc1ccccc1)NC(=O)Cn1ccnc1[N+](=O)[O-] (stereo not given)
inactive: CCRF-CEM > 100 µM | NCI-H226 34 µM | HOP-62 > 100 µM | A549 > 100 µM | UO-31 > 100 µM | M14 > 100 µM | LOX IMVI > 100 µM | OVCAR-3 > 10 µM | SK-MEL-28 > 100 µM | UACC-257 > 100 µM | SN12C > 100 µM | ACHN > 100 µM | SF-539 > 100 µM | OVCAR-5 > 100 µM | RXF 393 > 100 µM | SF-295 > 100 µM

COC(=O)C(=O)C(CC(=O)Nc1c(C)cccc1C)C(=O)OC (stereo not given)
inactive: CCRF-CEM > 100 µM | NCI-H226 > 100 µM | HOP-62 > 100 µM | A549 > 100 µM | UO-31 > 100 µM | M14 > 100 µM | LOX IMVI > 100 µM | OVCAR-3 > 100 µM | SK-MEL-28 > 100 µM | UACC-257 > 100 µM | SN12C > 100 µM | ACHN > 100 µM | SF-539 > 100 µM | OVCAR-5 > 100 µM | RXF 393 > 100 µM | SF-295 > 100 µM

O=C(/C=C\c1ccccc1O)c1ccc(O)cc1O
inactive: CCRF-CEM 87.7 µM | NCI-H226 > 100 µM | HOP-62 > 100 µM | A549 > 100 µM | UO-31 > 100 µM | M14 > 100 µM | LOX IMVI > 100 µM | OVCAR-3 > 100 µM | SK-MEL-28 > 100 µM | UACC-257 > 100 µM | SN12C > 100 µM | ACHN > 100 µM | SF-539 > 100 µM | OVCAR-5 > 100 µM | RXF 393 > 100 µM | SF-295 > 100 µM

COc1cc2cccc(/N=C\c3ccccc3Cl)c2cc1OC
inactive: CCRF-CEM 22.8 µM | NCI-H226 > 100 µM | HOP-62 > 100 µM | A549 > 100 µM | UO-31 > 100 µM | M14 > 100 µM | LOX IMVI 70.3 µM | OVCAR-3 > 100 µM | SK-MEL-28 > 100 µM | UACC-257 > 100 µM | SN12C > 100 µM | ACHN > 100 µM | SF-539 > 100 µM | OVCAR-5 > 100 µM | RXF 393 > 100 µM | SF-295 69 µM
